Source: the NIST ThermoML archive (doi:10.1021/je100967k)

How the values were obtained:
[1] = xn = mol fraction of the nth substance listed; settings: 101 kPa, Liquid; for speed of sound: Pulse-echo method
[2] = refractive index (Na D-line) (dimensionless); xn = mol fraction of the nth substance listed; settings: 101 kPa, Liquid, Standard Abbe refractometry

NCCO [2-aminoethan-1-ol] + CN1CCCC1=O
Settings	mass density, [1] [kg/m3]	refractive index, [2]	speed of sound, [1] [m/s]	viscosity, [1] [mPa·s]
293.15 K, x2 = 0	1016.65	1.4525	1735.9	24.61
293.15 K, x2 = 0.1	1017.8	1.4546	1701.7	17.43
293.15 K, x2 = 0.209	1019.27	1.4567	1673.2	11.99
293.15 K, x2 = 0.3	1020.59	1.4587	1649.8	8.496
293.15 K, x2 = 0.4	1022.06	1.4604	1630.1	6.211
293.15 K, x2 = 0.5	1023.46	1.462	1613.2	4.761
293.15 K, x2 = 0.596	1024.91	1.4634	1599.1	3.622
293.15 K, x2 = 0.7	1026.57	1.4648	1587.7	2.883
293.15 K, x2 = 0.8	1028.4	1.4663	1578.6	2.401
293.15 K, x2 = 0.907	1030.5	1.4677	1571.4	2.089
303.15 K, x2 = 0	1008.74	1.4488	1703.7	14.96
303.15 K, x2 = 0.1	1009.8	1.4507	1668.1	10.93
303.15 K, x2 = 0.209	1011	1.4527	1638.4	7.985
303.15 K, x2 = 0.3	1012.1	1.4546	1613.8	5.834
303.15 K, x2 = 0.4	1013.5	1.4563	1593.6	4.433
303.15 K, x2 = 0.5	1014.9	1.4578	1576	3.752
303.15 K, x2 = 0.596	1016.3	1.4592	1561.2	2.822
303.15 K, x2 = 0.7	1018	1.4605	1549.8	2.296
303.15 K, x2 = 0.8	1019.7	1.4619	1540.5	1.95
303.15 K, x2 = 0.907	1021.72	1.4632	1532.7	1.725
313.15 K, x2 = 0	1000.77	1.4449	1671.2	9.839
313.15 K, x2 = 0.1	1001.6	1.4467	1634.1	7.429
313.15 K, x2 = 0.209	1002.38	1.4486	1603.1	5.559
313.15 K, x2 = 0.3	1003.2	1.4505	1578.6	4.278
313.15 K, x2 = 0.4	1004.2	1.452	1557.3	3.358
313.15 K, x2 = 0.5	1005.5	1.4534	1538.9	2.697
313.15 K, x2 = 0.596	1006.9	1.4548	1523.9	2.245
313.15 K, x2 = 0.7	1008.69	1.4561	1512.1	1.866
313.15 K, x2 = 0.8	1010.68	1.4575	1502.6	1.62
313.15 K, x2 = 0.907	1012.79	1.4588	1494.4	1.462
323.15 K, x2 = 0	992.75	1.4417	1638.8	6.902
323.15 K, x2 = 0.1	993.31	1.4434	1600.2	5.386
323.15 K, x2 = 0.209	994	1.4451	1568.9	4.159
323.15 K, x2 = 0.3	994.64	1.4466	1544.4	3.289
323.15 K, x2 = 0.4	995.6	1.4479	1521.5	2.625
323.15 K, x2 = 0.5	996.7	1.4493	1502	2.173
323.15 K, x2 = 0.596	998.14	1.4506	1486.7	1.883
323.15 K, x2 = 0.7	999.74	1.4519	1474.5	1.574
323.15 K, x2 = 0.8	1001.73	1.4533	1464.8	1.356
323.15 K, x2 = 0.907	1003.86	1.4545	1456.8	1.24
